Assay type in all cases: cell-based
The subject of assay [1] is human aortic smooth muscle cells (AoSMC). Kind of assay: Alkaline phosphatase activity assay in AoSMC. The following applies: 300 mcM ascorbate, regular growth medium, FIG. 1. As to the method: AoSMC were plated in 96 well plates and grown to confluent layer. Cells were incubated with ascorbic acid in growth medium for three days. Cells were washed with phosphate buffered saline (PBS) and supplemented with 50 mcl/well 25 mcg/ml 4-MUP (fluorescent ALP substrate, Sigma) in alkaline buffer (Sigma)/1% Triton X100 for 1 h at room temperature. Fluorescence was measured at 360/450 nm.

For assay [2], the system named is human dermal fibroblasts (DF). Kind of assay: Expression of osteoblast markers in dermal fibroblasts (immunoassay). The settings on record: 100 mcM ascorbic acid, medium with 5 mM beta-glycerophosphate and 25 mcM forskolin, FIG. 3. As to the method:
(§1) Cell viability was monitored with MTT assay.
(§2) For the experiments AoSMC, DF and hFOB cells were seeded in separate 96 well plastic plates at density 25,000 per square cm and grown to confluence for 5-7 days. Tested compounds were added to cells at indicated concentrations for 72 hours in DMEM supplemented with 2% FBS. Cell layers were washed three times with PBS and fixed with 3% formaldehyde in PBS at 4° C. for one hour. Fixed cell layers were washed four times with PBS and treated with 1% BSA/PBS for one hour at RT. Immunoassay for osteogenic markers was done by sequential incubation with primary monoclonal antibodies (R&D Systems) in 1% BSA/PBS for 2 hours followed by 1 hour incubation with secondary goat anti-mouse IgG antibodies labeled with horse radish peroxidase (HRP). Retained peroxidase activity was measured after the last washing cycle (three times with 0.1% BSA/PBS) using TMB peroxidase substrate reagent (Rockland). Optical density was read with plate reader (Molecular Devices) at 450 nm and expressed as percentage of control cell samples incubated in unsupplemented 2% FBS/DMEM. To ensure a direct comparison of osteogenic markers expression on different cell types all pcell covered plates were treated identical and simultaneously during immunoassay.

The subject of assay [3] is human aortic smooth muscle cells (AoSMC). Kind of assay: Calcium accumulation in extracellular matrix of cultured AoSMC. On the procedure:
as §1
AoSMC were seeded on fibronectin covered plastic plates at density 25,000 per square cm and grown to confluence for 5-7 days. […] J Cardiovasc Pharmacol 2008; 52:55-65. After four washes with PBS, ECM layers were solubilized by incubation in 0.6N HCl for 48 hours at 37° C. Calcium content in solubilized samples was measured with TECO Ca assay according to manufacturer's protocol.

Assay [4] shares this test system. Kind of assay: Expression of osteoblast markers in AoSMC (immunoassay). The following applies: 100 mcM ascorbic acid, medium with 5 mM beta-glycerophosphate and 25 mcM forskolin, FIG. 3. As to the method: as §1, §2
The mark [5] stands for this setting: 100 mcM ascorbate concomitant with simvastatin, without forskolin, FIG. 2A.

SMILES strings stand for the structures.

For the molecule `O=C1O[C@H]([C@@H](O)CO)C(O)=C1O` [ascorbic acid, L-ascorbic acid], the “decrease of cellular alkaline phosphatase activity” value in assay [1] was 80%. The “expression of all tested osteogenic markers” value in assay [2] and in assay [4] was “significantly reduced” in each case. Further, in assay [3] (100 mcM ascorbate added to 1 mM mevastatin, with 25 mcM forskolin, FIG. 2B), the “decrease of calcium accumulation” value amounted to 19%. Further, the accumulated calcium in assay [3] (setting [5]) is 0.2 mcg/well. Also, in assay [3] (setting [5]), the “decrease of accumulated calcium” value is given as 54%. In addition, the “decrease of extracellular Ca accumulation by AoSMC” value in assay [3] (300 mcM ascorbate, regular growth medium, FIG. 1) is listed as 20%.

For the molecule `CC[C@H](C)C(=O)O[C@H]1CCC=C2C=C[C@H](C)[C@H](CC[C@@H]3C[C@@H](O)CC(=O)O3)[C@H]21` [mevastatin], the calcium accumulation in assay [3] (1 mM mevastatin, with 25 mcM forskolin, FIG. 2B, control 1.35 mcg/well) is 1.8 mcg/well.

For the molecule `CCC(C)(C)C(=O)O[C@H]1C[C@@H](C)C=C2C=C[C@H](C)[C@H](CC[C@@H]3C[C@@H](O)CC(=O)O3)[C@H]21` [simvastatin], in assay [3] (in the presence of simvastatin, without forskolin, FIG. 2A), the “increase of calcium accumulation in AoSMC layers” value is on record as 23%.
